# Reference: patent publication US20050065086A1, “Use of peptide-drug conjugation to reduce inter-subject variability of drug serum levels” (New River Pharmaceuticals Inc., priority 2002, published 2005)
# Columns and labels:
# Caco-2 Cells [1] = conditions: cited from earlier work
# Caco-2 Cells [2] = conditions: unlike rapid and efficient in vivo absorption; cited from earlier work
# physchem = format: physicochemical; conditions: pH 7.4, aqueous buffer
# From the text: The enhanced absorption may be explained by the use of an additional transport mechanism, such as one of the peptide transporters.
# [3] = after oral administration (Gidal and coworkers); cited from earlier work
structure (smiles),measurement,setting,value
NS(=O)(=O)c1cc2c(cc1Cl)N=CNS2(=O)=O [chlorothiazide],permeability,Caco-2 Cells [1]; Caco-2,low
same,absorption in humans,Caco-2 Cells [1],low
N[C@@H](Cc1ccc(O)c(O)c1)C(=O)O [L-dopa],transport by Caco-2 cells,Caco-2 Cells [2],do not transport L-dopa very well
"N[C@@H](Cc1cc(I)c(Oc2cc(I)c(O)c(I)c2)c(I)c1)C(=O)O [T4, sodium, levothyroxine sodium]",solubility,physchem,6.9 µg/mL
NCC1(CC(=O)O)CCCCC1 [gabapentin],intersubject CV for the AUC,[3],22.5%
